Laboratory results taken from publication PMC2603307 (Chemistry & biology, 2008).

Biological target: T1, E. coli GCH I (FolE, B2153) (Escherichia coli, UniProt P0A6T5)
T1 sequence (P0A6T5 2-222): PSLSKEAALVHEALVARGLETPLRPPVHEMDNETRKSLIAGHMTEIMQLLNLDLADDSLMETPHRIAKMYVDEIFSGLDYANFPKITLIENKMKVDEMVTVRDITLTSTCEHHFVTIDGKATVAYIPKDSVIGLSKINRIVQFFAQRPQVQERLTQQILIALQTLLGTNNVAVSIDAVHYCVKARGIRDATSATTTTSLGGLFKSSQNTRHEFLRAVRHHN
Experiment: LC-MS of product
Format: biochemical
Settings: 20 mM Tris-SO4 pH 8.0, 2 mM dithiothreitol, 0.1 M KCl, 100 uM GTP, 120 min, ambient temperature

Nc1nc2c(ncn2[C@@H]2O[C@H](COP(=O)(O)OP(=O)(O)OP(=O)(O)O)[C@@H](O)[C@H]2O)c(=O)[nH]1 [GTP]
LC-MS of product: product produced by ToyD with that produced with E. coli GCH I (FolE, B2153)
